The text below walks through data of patent US8067445B2, “N,N-disubstituted aminoalkylbiphenyl antagonists of prostaglandin D2 receptors” (Panmira Pharmaceuticals, LLC, priority 2008, dated 2011).

This assay has as its target T1, human DP2 receptor (Homo sapiens, UniProt Q9Y5Y4).
T1 construct: expressed in transfected cells
T1 sequence (Q9Y5Y4 1-395): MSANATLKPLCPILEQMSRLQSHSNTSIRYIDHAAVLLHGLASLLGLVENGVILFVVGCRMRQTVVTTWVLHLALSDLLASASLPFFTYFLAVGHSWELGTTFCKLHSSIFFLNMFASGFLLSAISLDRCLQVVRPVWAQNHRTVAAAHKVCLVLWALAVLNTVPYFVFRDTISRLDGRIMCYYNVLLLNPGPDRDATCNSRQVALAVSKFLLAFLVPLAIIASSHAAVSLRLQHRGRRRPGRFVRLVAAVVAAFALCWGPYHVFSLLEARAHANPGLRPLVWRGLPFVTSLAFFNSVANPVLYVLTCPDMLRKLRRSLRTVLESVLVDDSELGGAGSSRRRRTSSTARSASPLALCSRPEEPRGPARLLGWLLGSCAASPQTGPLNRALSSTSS
Briefly: DP2/CRTH2 radioligand binding assay ([3H]PGD2). The following applies: [3H]PGD2 binding, membranes of HEK293 cells expressing human DP2; read-out: hDP2. The method, then:
The ability of a compound to bind to the human DP2 receptor is assessed via a radioligand binding assay using [^3H]PGD2. HEK293 cells stably expressing recombinant human DP2 are resuspended in 10 mM Hepes, 7.4 containing 1 mM DTT, lysed and centrifuged at 75,000×g to pellet the membranes. The membranes are resuspended in 10 mM Hepes, 7.4 containing 1 mM DTT and 10% glycerol to approximately 5 mg protein/ml. Membranes (2-10 μg protein/well) are incubated in 96-well plates with 1 nM [^3H]PGD2 and test compound in Assay Buffer (50 mM Hepes, 10 mM MnCl2, 1 mM EDTA, plus or minus 0.2% human serum albumin, pH 7.4) for 60 minutes at room temperature. The reactions are terminated by rapid filtration through Whatman GF/C glass fibre filter plates. The filter plates were pre-soaked in 0.33% polyethylenimine for 30 minutes at room temperature then washed in Wash Buffer (50 mM Hepes, 0.5 M NaCl pH 7.4) prior to harvesting. After harvesting, the filter plates are washed 3 times with 1 ml cold Wash Buffer then dried. Scintillant is then added to the plates and the radioactivity retained on the filters is determined on a Packard TopCount (Perkin Elmer). Specific binding is determined as total radioactive binding minus non-specific binding in the presence of 10 μM PGD2. IC50s were determined using GraphPad prism analysis of drug titration curves.
Take `CCN(Cc1ccc(OC)cc1-c1cc(Cl)cc(CC(=O)O)c1)C(=O)COc1ccc(Cl)cc1` [Compound 1-221, [5-Chloro-2′-({[2-(4-chloro-phenoxy)-acetyl]-ethyl-amino}-methyl)-5′-methoxy-biphenyl-3-yl]-acetic acid]: the IC50 was less than 300 nM. Take `CCN(Cc1cc(C(F)(F)F)ccc1-c1cc(Cl)cc(C(C)C(=O)O)c1)C(=O)NCc1ccccc1` (stereo not shown) [Compound 1-223, 2-[2′-(3-Benzyl-1-ethyl-ureidomethyl)-5-chloro-4′-trifluoromethyl-biphenyl-3-yl]-propionic acid]: the IC50 is less than 300 nM. As for `CCN(Cc1cc(C(F)(F)F)ccc1-c1cc([C@H](C)C(=O)O)ccc1OC)C(=O)C1CC1` [Compound 1-225, (S)-2-{2′-[(Cyclopropanecarbonyl-ethyl-amino)-methyl]-6-methoxy-4′-trifluoromethyl-biphenyl-3-yl}-propionic acid], the IC50 was 1000 to 30000 nM.

As to `CCOc1ccc(-c2ccc(-c3cc(CC(=O)O)ccc3OC)c(CN(CC)C(=O)COc3ccc(Cl)cc3)c2)cn1` [Compound 1-229, [2′-({[2-(4-Chloro-phenoxy)-acetyl]-ethyl-amino}-methyl)-4′-(6-ethoxy-pyridin-3-yl)-6-methoxy-biphenyl-3-yl]-acetic acid], the IC50 is less than 300 nM.

Regarding `CCN(Cc1cc(-c2ccc3ncccc3c2)ccc1-c1cc(CC(=O)O)ccc1OC)C(=O)C1CC1` [Compound 1-230, {2′-[(Cyclopropanecarbonyl-ethyl-amino)-methyl]-6-methoxy-4′-quinolin-6-yl-biphenyl-3-yl}-acetic acid], the IC50 is less than 300 nM. Consider `CCN(Cc1cc(-c2ccc3ncccc3c2)ccc1-c1cc(CC(=O)O)ccc1OC)C(=O)NCc1ccccc1` [Compound 1-231, [2′-(3-Benzyl-1-ethyl-ureidomethyl)-6-methoxy-4′-quinolin-6-yl-biphenyl-3-yl]-acetic acid], for which the IC50 is less than 300 nM. The figure for `CCN(Cc1cc(-c2ccc3ncccc3c2)ccc1-c1cc(CC(=O)O)ccc1OC)C(=O)COc1ccc(Cl)cc1` [Compound 1-232, [2′-({[2-(4-Chloro-phenoxy)-acetyl]-ethyl-amino}-methyl)-6-methoxy-4′-quinolin-6-yl-biphenyl-3-yl]-acetic acid] is less than 300 nM.

As for `CCN(Cc1cc(C(F)(F)F)ccc1-c1cc(C(F)(F)F)cc(C(C)(C)C(=O)O)c1)C(=O)C1CC1` [Compound 1-236, 2-{2′-[(Cyclopropanecarbonyl-ethyl-amino)-methyl]-5,4′-bis-trifluoromethyl-biphenyl-3-yl}-2-methyl-propionic acid], the IC50 was in the range of 300 to 1000 nM. The figure for `CCN(Cc1cc(C(F)(F)F)ccc1-c1cc([C@H](C)C(=O)O)cc(C(F)(F)F)c1)C(=O)C1CC1` [Compound 1-238, (S)-2-{2′-[(Cyclopropanecarbonyl-ethyl-amino)-methyl]-5,4′-bis-trifluoromethyl-biphenyl-3-yl}-propionic acid] is less than 300 nM; for `CCN(Cc1cc(C(F)(F)F)ccc1-c1cc([C@@H](C)C(=O)O)cc(C(F)(F)F)c1)C(=O)NCc1ccccc1` [Compound 1-239, (R)-2-[2′-(3-Benzyl-1-ethyl-ureidomethyl)-5,4′-bis-trifluoromethyl-biphenyl-3-yl]-propionic acid] it is less than 300 nM.

For the compound `CCN(Cc1cc(C(F)(F)F)ccc1-c1cc([C@H](C)C(=O)O)cc(C(F)(F)F)c1)C(=O)NCc1ccccc1` [Compound 1-240, (S)-2-[2′-(3-Benzyl-1-ethyl-ureidomethyl)-5,4′-bis-trifluoromethyl-biphenyl-3-yl]-propionic acid], the IC50 was less than 300 nM. With `CCN(Cc1cc(SC)ccc1-c1cc(Cl)cc(CC(=O)O)c1)C(=O)C1CC1` [Compound 1-242, {5-Chloro-2′-[(cyclopropanecarbonyl-ethyl-amino)-methyl]-4′-methylsulfanyl-biphenyl-3-yl}-acetic acid], the IC50 was less than 300 nM.

Consider `CCN(Cc1cc(C(F)(F)F)ccc1-c1cc(C(C)C(=O)O)ccc1OC)C(=O)NC1CC1` (stereo not shown) [Compound 1-243, 2-[2′-(3-Cyclopropyl-1-ethyl-ureidomethyl)-6-methoxy-4′-trifluoromethyl-biphenyl-3-yl]-propionic acid], for which the IC50 was less than 300 nM. Regarding `CCN(Cc1cc(C(F)(F)F)ccc1-c1cc(CC(=O)O)ccc1OC)C(=O)C(C)(C)C` [Compound 1-245, (2′-{[(2,2-Dimethyl-propionyl)-ethyl-amino]-methyl}-6-methoxy-4′-trifluoromethyl-biphenyl-3-yl)-acetic acid], the IC50 lay in the range of 1000 to 30000 nM.

With `CCN(Cc1cc(-c2ccc(F)cn2)ccc1-c1cc(CC(=O)O)ccc1OC)C(=O)C1CC1` [Compound 1-249, [2′-[(Cyclopropanecarbonyl-ethyl-amino)-methyl]-4′-(5-fluoro-pyridin-2-yl)-6-methoxy-biphenyl-3-yl]-acetic acid], the IC50 was less than 300 nM. With `CCN(Cc1cc(-c2ncc(OC)cn2)ccc1-c1cc(CC(=O)O)ccc1OC)C(=O)C1CC1` [Compound 1-250, [2′-[(Cyclopropanecarbonyl-ethyl-amino)-methyl]-6-methoxy-4′-(5-methoxy-pyrimidin-2-yl)-biphenyl-3-yl]-acetic acid], the IC50 is less than 300 nM. The result for `CCOc1ccc(-c2ccc(-c3cc(CC(=O)O)ccc3OC)c(CN(CC)C(=O)c3ccccc3)c2)cn1` [Compound 1-254, [2′-[(Benzoyl-ethyl-amino)-methyl]-4′-(6-ethoxy-pyridin-3-yl)-6-methoxy-biphenyl-3-yl]-acetic acid] reads less than 300 nM. The result for `CCOc1ccc(-c2ccc(-c3cc(CC(=O)O)ccc3OC)c(CN(CC)C(=O)Cc3ccccc3)c2)cn1` [Compound 1-255, {4′-(6-Ethoxy-pyridin-3-yl)-2′-[(ethyl-phenylacetyl-amino)-methyl]-6-methoxy-biphenyl-3-yl}-acetic acid] reads less than 300 nM. The result for `CCOc1ccc(-c2ccc(-c3cc(CC(=O)O)ccc3OC)c(CN(CC)C(=O)CCc3ccccc3)c2)cn1` [Compound 1-256, (4′-(6-Ethoxy-pyridin-3-yl)-2′-{[ethyl-(3-phenyl-propionyl)-amino]-methyl}-6-methoxy-biphenyl-3-yl)-acetic acid] reads less than 300 nM; that for `CCN(Cc1cc(C(F)(F)F)ccc1-c1cc([C@@H](C)C(=O)N[C@H](C)Cc2ccccc2)cc(C(F)(F)F)c1)C(=O)NCc1ccccc1` [Compound 2-10, (R)-2-[2′-(3-Benzyl-1-ethyl-ureidomethyl)-5,4′-bis-trifluoromethyl-biphenyl-3-yl]-N—((R)-1-methyl-2-phenyl-ethyl)-propionamide], more than 30000 nM; that for `CCN(Cc1cc(C(F)(F)F)ccc1-c1cc([C@H](C)C(=O)N[C@H](C)Cc2ccccc2)cc(C(F)(F)F)c1)C(=O)NCc1ccccc1` [Compound 2-11, (S)-2-[2′-(3-Benzyl-1-ethyl-ureidomethyl)-5,4′-bis-trifluoromethyl-biphenyl-3-yl]-N—((R)-1-methyl-2-phenyl-ethyl)-propionamide], less than 300 nM. For `CCN(Cc1cc(C(F)(F)F)ccc1-c1cc([C@@H](C)C(=O)N2C(=O)O[C@@H](c3ccccc3)[C@H]2C)ccc1OC)C(=O)C1CC1` [Compound 2-12, Cyclopropanecarboxylic acid ethyl-{2′-methoxy-5′-[(R)-1-methyl-2-((4R,5S)-4-methyl-2-oxo-5-phenyl-oxazolidin-3-yl)-2-oxo-ethyl]-4-trifluoromethyl-biphenyl-2-ylmethyl}-amide], the IC50 was more than 30000 nM. With `CCN(Cc1cc(C(F)(F)F)ccc1-c1cc([C@H](C)C(=O)N2C(=O)O[C@@H](c3ccccc3)[C@H]2C)ccc1OC)C(=O)C1CC1` [Compound 2-13, Cyclopropanecarboxylic acid ethyl-{2′-methoxy-5′-[(S)-1-methyl-2-((4R,5S)-4-methyl-2-oxo-5-phenyl-oxazolidin-3-yl)-2-oxo-ethyl]-4-trifluoromethyl-biphenyl-2-ylmethyl}-amide], the IC50 is 1000 to 30000 nM. On to `CCOC(=O)Cc1ccc(OC)c(-c2ccc(C(=O)O)cc2CN(CC)C(=O)OCc2ccccc2)c1` [Compound 2-14, 2-[(Benzyloxycarbonyl-ethyl-amino)-methyl]-5′-ethoxycarbonylmethyl-2′-methoxy-biphenyl-4-carboxylic acid], for which the IC50 was 1000 to 30000 nM.

Regarding `CCN(Cc1cc(C(F)(F)F)ccc1-c1cc([C@@H](C)C(=O)N2C(=O)O[C@@H](c3ccccc3)[C@H]2C)cc(C(F)(F)F)c1)C(=O)C1CC1` [Compound 2-15, Cyclopropanecarboxylic acid ethyl-{3′-[(R)-1-methyl-2-((4R,5S)-4-methyl-2-oxo-5-phenyl-oxazolidin-3-yl)-2-oxo-ethyl]-4,5′-bis-trifluoromethyl-biphenyl-2-ylmethyl}-amide], the IC50 was 1000 to 30000 nM.
